The values below come from patent US12358895B2, “Process for manufacture of (S)-N-(3-((2-((4-((1-acetylpyrrolidin-3-yl)(methyl)amino)phenyl)amino)-5-methoxypyrimidin-4-yl)oxy)phenyl)acrylamide, and formulations thereof” (ACEA Therapeutics, Inc., priority 2018, dated 2025).

What all share (format): physicochemical
Series [1] can be described thus: pKa of the drug substance freebase. The text has this: (§1) The drug substance freebase is a weakly basic compound with a pKa of approximately 5.3. The aqueous solubility of the freebase is pH dependent. […] To enhance the absorption and bioavailability, a tartrate salt (Compound A-TA) was made to enhance the dissolution of the molecule in compositions intended for oral administration.

The nature of another series: Aqueous solubility.
From the text: Therefore, the L-(+)-tartrate salt of Compound A, referred to hereinafter as Compound A L-(+)-tartrate, or Compound A-TA, is especially suited for development and is used in many of the compositions and methods herein.
as §1

Series [2] can be described thus: Storage stability of encapsulated Compound A-TA in HDPE bottle with deoxidizer. The conditions noted are these: opaque HDPE bottle, LDPE cap, deoxidizer (PharmaKeep CD20).
Series [3] in a line: Chemical and polymorphic stability of solid forms.

Take `C=CC(=O)Nc1cccc(Oc2nc(Nc3ccc(N(C)[C@H]4CCN(C(C)=O)C4)cc3)ncc2OC)c1` [Compound A, (S)—N-(3-(2-(4-((1-acetylpyrrolidin-3-yl)(methyl)amino)phenylamino)-5-methoxypyrimidin-4-yloxy)phenyl)acrylamide]: in series [1], the pKa (in general, the negative logarithm of the acid dissociation constant) is roughly 5.3. For the same molecule, in the series “Aqueous solubility”, the water solubility result is “low water solubility” and the “aqueous solubility at higher pH” value was “nearly insoluble”. Also, the “aqueous solubility at higher pH” value in “Aqueous solubility” (listed as freebase) was “almost insoluble”. Also, in “Aqueous solubility” (lower pH), the “aqueous solubility at lower pH” value is recorded as “increases dramatically”.
For `C=CC(=O)Nc1cccc(Oc2nc(Nc3ccc(N(C)[C@H]4CCN(C(C)=O)C4)cc3)ncc2OC)c1.O=C(O)C(O)C(O)C(=O)O` [Compound A-TA, (S)—N-(3-((2-((4-((1-acetylpyrrolidin-3-yl)(methyl)amino)phenyl)amino)-5-methoxypyrimidin-4-yl)oxy)phenyl)acrylamide L-(+)-tartrate dihydrate], the “storage stability at 40° C. and 75% relative humidity” value in series [2] (up to 6 months) is “highly stable”. The “storage stability at 25° C. and 60% relative humidity” value in series [2] (up to 24 months) was “highly stable”. In addition, the “chemical and polymorphic stability” value in series [3] is “high chemical and polymorphic stability”.
